This note sets out measurements from patent publication US9617244B2, “Antibacterial quinoline derivatives” (JANSSEN PHARMACEUTICA NV, priority 2012, dated 2017).

Data set [1] has as its system Staphylococcus aureus (ATCC29213). Put plainly: In-vitro anti-bacterial activity, microtitre plate assay, IC90 determination (non-mycobacterial strains). Type of data set: cell-based. The note with it: 90% inhibitory concentration for bacterial growth, resazurin fluorescence; for IC90 STA B29213: 24 hours; for IC90: Staphylococcus aureus, ATCC29213, 24 h, read-out: IC90 STA B29213. In a few lines: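 Growth inhibition measured fluorometrically with resazurin (530/590 nm) after overnight 37 °C incubation under normal atmosphere. Bacteria added at roughly 100 TCID50 per well in Mueller-Hinton broth to five-fold compound dilution series; IC90 reported in μg/ml.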
For orientation: Alamar Blue is a resazurin reagent that responds to reducing activity.

For data set [2], the system named is Mycobacterium smegmatis (ATCC607). The experiment in a line: In-vitro anti-bacterial activity against strain M. Smegmatis ATCC607. Type of data set: cell-based. The note with it: 90% inhibitory concentration for bacterial growth, Alamar Blue fluorescence; for IC90 MSM 607: 48 hours; for IC90: Mycolicibacterium smegmatis, ATCC607, 48 h, read-out: IC90 MSM 607. In a few lines:
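IC90 (μg/ml) derived from Alamar Blue fluorescence (530/590 nm) after 48 h growth at 37 °C under 5% CO2. About 250 CFU per well in Mueller-Hinton broth faced five-fold serial compound dilutions in BSA-containing wells.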

In brackets after ≈: the same amount, converted by molar mass. Bounds are passed on as bounds.

`COc1nc2ccc(Br)cc2cc1C(c1ccc(Cl)cc1)C1(O)CCNC(Cc2ccc(F)cc2)C1` (stereo not drawn) [Compound 338] came in with a melting point of 198 °C. Further, in data set [1], the “IC90 STA B29213” value was determined as 1.80 µg/mL (≈ 3.16 µM). The “IC90 MSM 607” value in data set [2] turned out to be 1.43 µg/mL (≈ 2.51 µM).
With `COc1nc2ccc(S(C)(=O)=O)cc2cc1C(c1ccc(Cl)cc1)C1(O)CCNC(Cc2ccc(F)c(F)c2)C1` (stereo not drawn) [Compound 211], the melting point stood at 150 °C. Also, the IC90 in data set [1] is 14.8 µg/mL (≈ 25.1 µM). Besides, the IC90 in data set [2] came to 7.39 µg/mL (≈ 12.6 µM).
Molecule `CS(=O)(=O)c1ccc2[nH]c(=O)c(C(c3ccccc3)C3(O)CCNC(Cc4ccccc4)C3)cc2c1` (stereo not drawn) [Compound 156] gave a melting point of 254 °C. Also, the “IC90 STA B29213” value in data set [1] is over 12.63 µg/mL. Moreover, the “IC90 MSM 607” value in data set [2] worked out at 11.25 µg/mL (≈ 22.4 µM).
Take `COc1nc2ccc(Br)cc2cc1C(c1ccc(Cl)cc1)C1(O)CCNCC1Cc1cccc(F)c1` (stereo not drawn) [Compound 226]: the melting point stood at 221 °C. Moreover, the IC90 in data set [1] was found to be 1.8 µg/mL (≈ 3.16 µM). Moreover, the “IC90 MSM 607” value in data set [2] came to 0.90 µg/mL (≈ 1.58 µM).
Take `CS(=O)(=O)c1ccc2[nH]c(=O)c(C(c3ccccc3)C3(O)CCNC(Cc4ccccc4)C3)cc2c1` (stereo not drawn) [Compound 154]: the melting point is 250 °C. For the same molecule, the “IC90 STA B29213” value in data set [1] is over 12.63 µg/mL. Moreover, the “IC90 MSM 607” value in data set [2] is over 12.63 µg/mL.
For `COc1nc2ccc(SC)cc2cc1C(c1ccc(Cl)cc1)C1(O)CCNC(CC2CCCCC2)C1` (stereo not drawn) [Compound 287], the melting point was determined as 185 °C. In data set [1], the IC90 came out at 3.31 µg/mL (≈ 6.3 µM). For the same molecule, in data set [2], the IC90 was 2.63 µg/mL (≈ 5.01 µM).
Molecule `C=CCC1CNCCC1(O)C(c1cccc(Cl)c1)c1cc2cc(Cl)ccc2nc1OC` (stereo not drawn) [Compound 395] returned a melting point of 150 to 152 °C. In addition, the “IC90 STA B29213” value in data set [1] is 5.76 µg/mL (≈ 12.6 µM). Also, in data set [2], the “IC90 MSM 607” value came to 2.89 µg/mL (≈ 6.32 µM).
Take `COc1nc2ccc(Cl)cc2cc1C(c1ccc(Cl)cc1)C1(O)CCNC(c2ccc(F)cc2C)C1` (single isomer, unassigned) [Compound 2]: the melting point is 126 °C. For the same molecule, in data set [1], the “IC90 STA B29213” value came to 13.20 µg/mL (≈ 25.1 µM). Besides, in data set [2], the “IC90 MSM 607” value came out at 13.20 µg/mL (≈ 25.1 µM).
Regarding `COc1nc2ccc(Br)cc2cc1C(c1ccc(Cl)cc1)C1(O)CCNCC1Cc1cccc(F)c1` (stereo not drawn) [Compound 228], the melting point is 196 °C. Besides, the “IC90 STA B29213” value in data set [1] turned out to be 1.80 µg/mL (≈ 3.16 µM). The “IC90 MSM 607” value in data set [2] stood at 2.86 µg/mL (≈ 5.02 µM).
`COc1nc2ccc(Br)cc2cc1C(c1ccccc1)C1(O)CCNC(c2ccc(F)cc2C)C1` (stereo not drawn) [Compound 61] showed a melting point of 141 °C. Further, in data set [1], the “IC90 STA B29213” value was found to be 1.69 µg/mL (≈ 3.16 µM). For the same molecule, the “IC90 MSM 607” value in data set [2] is 0.85 µg/mL (≈ 1.59 µM).
The molecule `COc1nc2ccc(S(C)(=O)=O)cc2cc1C(c1ccccc1)C1(O)CCNC(Cc2ccccc2)C1` (stereo not drawn) [Compound 157] returned a melting point of 100 °C. Further, the IC90 in data set [1] is over 13 µg/mL. Also, the IC90 in data set [2] was over 13 µg/mL.
Molecule `CSc1ccc2[nH]c(=O)c(C(c3cccc(Cl)c3)C3(O)CCNC(c4ccc(F)cc4C)C3)cc2c1` (stereo not drawn) [Compound 175] yielded a melting point of 194 °C. Moreover, the “IC90 STA B29213” value in data set [1] stood at 2.34 µg/mL (≈ 4.47 µM). Moreover, the “IC90 MSM 607” value in data set [2] stood at 3.30 µg/mL (≈ 6.31 µM).
Taken in the same sequence, the figures for `COc1nc2ccc(SC)cc2cc1C(c1ccc(Cl)cc1)C1(O)CCNC(c2ccc(F)cc2C)C1` (stereo not drawn) [Compound 245] were 147 °C, 1.91 µg/mL (≈ 3.56 µM) and 1.07 µg/mL (≈ 1.99 µM).
In turn, `COc1nc2ccc(SC)cc2cc1C(c1ccc(Cl)cc1)C1(O)CCNC(c2ccc(F)cc2C)C1` (stereo not drawn) [Compound 244] yielded a melting point of 205 °C. Besides, the “IC90 STA B29213” value in data set [1] was 2.40 µg/mL (≈ 4.47 µM). Moreover, the “IC90 MSM 607” value in data set [2] was determined as 1.51 µg/mL (≈ 2.81 µM).
Take `C=CC1CC(O)(C(c2ccc(Cl)cc2)c2cc3cc(Br)ccc3nc2OC)CCN1` (stereo not drawn) [Compound 371]: the melting point turned out to be 158 °C. Also, the IC90 in data set [1] stood at 3.08 µg/mL (≈ 6.31 µM). Moreover, the “IC90 MSM 607” value in data set [2] worked out at 2.44 µg/mL (≈ 5 µM).
`COc1nc2ccc(S(C)(=O)=O)cc2cc1C(c1cccc(Cl)c1)C1(O)CCNC(c2ccc(F)cc2C)C1` (stereo not drawn) [Compound 47] had a melting point of 174 °C. Besides, the “IC90 STA B29213” value in data set [1] amounted to 14.30 µg/mL (≈ 25.1 µM). The “IC90 MSM 607” value in data set [2] amounted to 5.69 µg/mL (≈ 10 µM).

One may read the melting point as the temperature, or range, at which the solid turns liquid. The IC90 is the concentration at which the effect reaches the 90% level.
